One may read the GI50 as the concentration that inhibits growth by half.

Experiment in all cases: DTP human tumour cell line panel, 48 h
Experiment [1] relates to LOX IMVI.
Experiment [2] concerns LXFL 529.
In experiment [3] the test system is NCI-H226.
For experiment [4], the system named is SK-MEL-28.
The test system of experiment [5] is UACC-62.
Experiment [6] deals with CAKI-1.
Experiment [7] has as its system SK-MEL-5.
Experiment [8] has as its system HL-60.
In experiment [9] the test system is HT-29.
For experiment [10], the system named is SNB-75.
Experiment [11] relates to SK-OV-3.
Experiment [12] deals with M14.
Experiment [13] relates to HCC 2998.
Experiment [14] deals with ACHN.
Experiment [15] has as its system SF-295.
Experiment [16] relates to HOP-92.
Experiment [17] has as its system NCI/ADR-RES.
For experiment [18], the system named is PC-3.
Experiment [19] relates to MCF7.
The subject of experiment [20] is MDA-N.

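Interpolation was linear, between the two tested concentrations surrounding the appropriate level; five concentrations were tested over 48 hours in 96-well plates. GI50: concentration for 50% inhibition of growth.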 Calls of active or inactive are those of the source. Cut-off read from the data, not from the text of the source: active = GI50 up to about 1.1 µM and inactive = higher.

For the compound `Cc1ccccc1C(C#N)C(=O)C(=O)Nc1nc([N+](=O)[O-])cs1` (stereo not drawn), the GI50 in experiment [1] is 40.2 µM (inactive); in [2] it was > 100 µM (inactive); in experiment [3] it was > 100 µM (inactive); in experiment [4] it was > 100 µM (inactive); in experiment [5], > 100 µM (inactive); in [6], > 100 µM (inactive). In addition, the GI50 in experiment [7] was > 100 µM (inactive); in experiment [8], 26.2 µM (inactive); in experiment [9] it was > 100 µM (inactive); in experiment [10] it was > 100 µM (inactive); in experiment [11] it was > 100 µM (inactive); in experiment [12], > 100 µM (inactive). In addition, the GI50 in experiment [13] and in experiment [14] was > 100 µM (inactive) each time.

With `CS(=O)(=O)c1ccc(-c2cc(-c3ccc(S(C)(=O)=O)cc3)[n+](-c3cc(-c4ccc(S(C)(=O)=O)cc4)c([O-])c(-c4ccc(S(C)(=O)=O)cc4)c3)c(-c3ccc(S(C)(=O)=O)cc3)c2)cc1`, the GI50 in [1], in experiment [2], in experiment [3], in experiment [4], in experiment [5] and in [6] was > 100 µM (inactive) in each case. For the same compound, the GI50 in [7] is > 100 µM (inactive); in [15] it was 91.8 µM (inactive); in experiment [9] it was > 100 µM (inactive); in experiment [10] it was > 100 µM (inactive); in [12], > 100 µM (inactive); in experiment [13], > 100 µM (inactive). In experiment [14], the GI50 was > 100 µM (inactive).

In the case of `COC(=O)CCC12CCC(=O)C1[C@@H](C(=O)OC)C[C@H]2C(=O)OC` (stereo partly drawn), the GI50 in [1], in [2], in experiment [3], in experiment [5], in [6] and in experiment [7] was > 100 µM (inactive) each time. Further, the GI50 in experiment [8], in experiment [15], in [9], in [10], in experiment [11] and in experiment [12] was > 100 µM (inactive) throughout. The GI50 in experiment [13] and in experiment [14] was > 100 µM (inactive) throughout.

For the compound `O=C(O)C1(C(=O)O)CC1`, the GI50 in [2], in [4], in experiment [5], in experiment [6], in experiment [7] and in experiment [8] was > 100 µM (inactive) throughout. Further, the GI50 in experiment [15] was > 100 µM (inactive); in [10], > 100 µM (inactive); in experiment [11], > 100 µM (inactive); in [12], 54.7 µM (inactive); in experiment [13] it was > 100 µM (inactive); in experiment [14] it was > 100 µM (inactive).

`COc1cccc(N2C(=O)/C(=C/c3ccc(N(CCC#N)CCC#N)cc3)N=C2c2cc([N+](=O)[O-])ccc2Cl)c1`: the GI50 in experiment [2] was 67.9 µM (inactive); in experiment [3], > 100 µM (inactive); in [4] it was > 100 µM (inactive); in experiment [5], 39.1 µM (inactive); in experiment [6], > 100 µM (inactive); in [7] it was 84.9 µM (inactive). For the same compound, the GI50 in experiment [8] is 49.8 µM (inactive); in experiment [15], 19.7 µM (inactive); in experiment [9] it was 47 µM (inactive); in [10], 95.5 µM (inactive); in experiment [11], > 100 µM (inactive); in experiment [12], 42.8 µM (inactive). In addition, the GI50 in experiment [13] is 60.5 µM (inactive); in experiment [14] it was 44 µM (inactive).

On to `C#CCN(N=O)C(=O)ON1C(=O)CCC1=O`, for which the GI50 in experiment [1], in experiment [2], in [4], in [5], in experiment [7] and in experiment [8] was > 100 µM (inactive) in each case. Also, the GI50 in experiment [15], in [9], in experiment [10], in experiment [11], in [12] and in experiment [16] was > 100 µM (inactive) in each case. Also, the GI50 in experiment [14] is > 100 µM (inactive).

As for `O=C1Nc2ccc(Cl)c(I)c2C1=O`, the GI50 in experiment [1] is 18.5 µM (inactive); in [2] it was 16.8 µM (inactive); in experiment [3] it was 0.608 µM (active); in experiment [4], 17.8 µM (inactive); in [5] it was 18.7 µM (inactive); in [6], 21.6 µM (inactive). Besides, the GI50 in experiment [7] is 19.2 µM (inactive); in experiment [8] it was 16.1 µM (inactive); in [15] it was 17.8 µM (inactive); in [9] it was 29.6 µM (inactive); in experiment [10] it was 22.8 µM (inactive); in experiment [11], 17.9 µM (inactive). Moreover, the GI50 in [12] was 17 µM (inactive); in [13] it was 14.6 µM (inactive); in experiment [14], 16.7 µM (inactive).

In the case of `C=CC(C)(C)[C@@]12CC3C(=O)N[C@@H](Cc4ccccc4)C(=O)N3[C@@H]1N(C(C)=O)c1ccccc12` (stereo partly drawn), the GI50 in experiment [1] is > 100 µM (inactive); in experiment [2] it was 52.6 µM (inactive); in experiment [3], > 100 µM (inactive); in experiment [4], > 100 µM (inactive); in [5] it was > 100 µM (inactive); in experiment [7] it was 37.2 µM (inactive). The GI50 is 30.3 µM (inactive) in experiment [8]; 97.3 µM (inactive) in experiment [15]; 62.2 µM (inactive) in experiment [9]; 59.8 µM (inactive) in [10]; > 100 µM (inactive) in [11]; 57.8 µM (inactive) in experiment [12]. Besides, the GI50 in [16] was 25.2 µM (inactive); in [14], 63.5 µM (inactive).

Consider `CCN(CC)CCSc1c2ccccc2nc2c(OC)ccc(OC)c12`, for which the GI50 in experiment [1] was 4.81 µM (inactive); in [2] it was 2.3 µM (inactive); in [3], 29.5 µM (inactive); in experiment [4], 2.94 µM (inactive); in experiment [5] it was 3.77 µM (inactive); in experiment [6], 3.1 µM (inactive). The GI50 in experiment [7] was 4.66 µM (inactive); in experiment [8], 1.73 µM (inactive); in experiment [15] it was 33.4 µM (inactive); in experiment [9], 4.59 µM (inactive); in experiment [10], > 49.7 µM (inactive); in [11], 36 µM (inactive). The results for the GI50 in [12], in experiment [16] and in experiment [14] were 2.44 µM (inactive), 2.36 µM (inactive) and 5.61 µM (inactive), respectively.

Turning to `CC1=NC(C)(COC(=O)C2(C)NC(C)(CO)CO2)COC1=O` (stereo not drawn), the GI50 in experiment [1], in [3], in [4], in experiment [5], in experiment [6] and in experiment [17] was > 100 µM (inactive) each time. The GI50 in experiment [7], in experiment [18], in experiment [8], in experiment [15], in experiment [9] and in experiment [10] was > 100 µM (inactive) throughout. Further, the GI50 in [11], in experiment [19], in experiment [12], in experiment [13], in experiment [20] and in experiment [16] was > 100 µM (inactive) in each case. Moreover, the GI50 in experiment [14] was > 100 µM (inactive).
